Converted amounts (≈) assume the structure as drawn. Like-named read-outs stand apart in the source and are kept apart here.
Experiments:
Test in all cases: MIC determination by in vitro antifungal assay
Format in all cases: cell-based
[1] = test system: Aspergillus nidulans ATCC 38163 (P)
Protocol: (§1) 10 mg/mL stock solutions of compounds 1a-9j were prepared in dimethyl sulfoxide (DMSO) and were stored at −20° C. in the dark. The antifungal agent amphotericin B (AmB) was purchased from VWR (Radnor PA, USA). AmB was dissolved in DMSO at a final concentration of 5 mg/mL and was stored at −20° C., protected from light. Candida albicans American Type Culture Collection (ATCC) 10231 (strain A), C. albicans ATCC 64124 (B), and C. albicans ATCC MYA-2876 (C) were obtained from Utah State University. C. albicans ATCC 90819 (D), C. albicans ATCC MYA-2310 (E), C. albicans ATCC MYA-1237 (F), C. albicans ATCC MYA-1003 (G), Candida glabrata ATCC 2001 (H), Candida krusei ATCC 6258 (I), Candida parapsilosis ATCC 22019 (J), Cryptococcus neoformans ATCC MYA-895 (M), Aspergillus terreus ATCC MYA-3633 (N), and Aspergillus flavus ATCC MYA-3631 (0) were obtained from the American Type Culture Collection (ATCC; Manassas, VA, USA). Aspergillus nidulans ATCC 38163 (P) was obtained from University of Kentucky. Clinically derived Aspergillus fumigatus NRRL 163 (Q), A. fumigatus NRRL 5109 (R), and A. fumigatus NRRL 6113 (S) were obtained from Northern Regional Research Laboratory (NRRL). Candida auris 384 (K), C. auris 390 (L), and fungal strains 381-400 (including 10 C. auris (AR Bank #381-390), 3 Candida duobushaemulonii (AR Bank #391, AR Bank #392, and AR Bank #394), 2 Candida haemulonii (AR Bank #393 and AR Bank #395), 1 Kodameae ohmeri (AR Bank #396), 1 C. krusei (AR Bank #397), 1 Candida lusitaniae (AR Bank #398), and 2 Saccharomyces cerevisiae strains (AR Bank #399 and AR Bank #400)) were part of a larger fungal library from the AR Bank maintained by the Centers for Disease Control and Prevention (CDC; Atlanta, GA, USA). Filamentous fungi and yeasts were cultivated at 35° C. in RPMI 1640 medium (with L-glutamine, without sodium bicarbonate, Sigma-Aldrich, St. Louis, MO) buffered to a pH of 7.0 with 0.165 M morpholinepropanesulfonic acid (MOPS) buffer (Sigma-Aldrich). For cytotoxicity assays, HepG2 and the mouse macrophage cell line J774A.1 were obtained from University of Kentucky. The human embryonic kidney cell line, HEK-293, was bought from the ATCC. Mammalian cells were grown in Dulbecco's Modified Eagle's Medium (DMEM) (from VWR) with 10% fetal bovine serum (FBS) (from VWR) and 1% Pen/Strep (from ATCC). Cell lines were cultured at 37° C. with 5% CO2 and passaged by trypsinization with 0.05% trypsin: 0.53 mM EDTA (from Sigma-Aldrich).
(§2) The MIC values of compounds 1a-9j against yeast cells (strains A-P and 381-400) were determined in 96-well plates as described in the CLSI documents M27-A3 and M38-A2 with minor modifications.^2 A single colony of freshly prepared yeast cells was used to inoculate 5 mL of yeast extract peptone dextrose (YPD) broth prior to incubation overnight with shaking at 200 rpm at 35° C. From the actively growing yeast culture, 100 µL were then transferred to 900 μL of RPMI 1640 medium and re-adjusted to achieve OD600 of 0.12 (˜1×10^6 CFU/mL). The cell suspension was further diluted to achieve 1:100 in RPMI 1640 medium. 100 μL of cells were added to the wells of a 96-well microtiter plates that contained 100 µL of the compound solution to obtain concentrations of 0.06-31.3 μg/mL of compounds 1a-9j or AmB prior to incubation for 48 h at 35° C.
(§3) Finally, the activity of these monohydrazides was explored against […] non-Candida strains: Cryptococcus neoformans ATCC MYA-895 (M), Aspergillus terreus ATCC MYA-3633 (N), Aspergillus flavus ATCC MYA-3631 (O), Aspergillus nidulans ATCC 38163 (P), Aspergillus fumigatus NRRL 163 (Q), A. fumigatus NRRL 5109 (R), and A. fumigatus NRRL 6113 (S) (Tables 1A and 1B). The double dilution method was used with concentrations ranging from 0.06 to 31.3 j·tg mL^−1 for monohydrazides 1a-9j, and the commercially available positive antifungal control amphotericin B (AmB).

[2] = test system: Aspergillus flavus ATCC MYA-3631 (O); settings: strain O = A. flavus ATCC MYA-3631
Protocol: as §1, §2, §3

[3] = test system: Cryptococcus neoformans ATCC MYA-895 (M)
Protocol: as §1, §2, §3

[4] = test system: Aspergillus terreus ATCC MYA-3633 (N); settings: strain N = A. terreus ATCC MYA-3633
Protocol: as §1, §2, §3

[5] = test system: Candida glabrata ATCC 2001 (H); settings: ATCC 2001 in text
Protocol: as §1
(§4) The MIC values of compounds 1a-9j against yeast cells (strains A-P and 381-400) were determined in 96-well plates as described in the CLSI documents M27-A3 and M38-A2 with minor modifications.^2 A single colony of freshly prepared yeast cells was used to inoculate 5 mL of yeast extract peptone dextrose (YPD) broth prior to incubation overnight with shaking at 200 rpm at 35° C. From the actively growing yeast culture, 100 µL were then transferred to 900 μL of RPMI 1640 medium and re-adjusted to achieve OD600 of 0.12 (˜1×10^6 CFU/mL). The cell suspension was further diluted to achieve 1:100 in RPMI 1640 medium. 100 μL of cells were added to the wells of a 96-well microtiter plates that contained 100 µL of the compound solution to obtain concentrations of 0.06-31.3 μg/mL of compounds 1a-9j or AmB prior to incubation for 48 h at 35° C. […]

[6] = test system: Candida parapsilosis ATCC 22019 (J)
Protocol: as §1, §4

[7] = test system: Candida krusei ATCC 6258 (I)
Protocol: as §1, §4

[8] = strain P = A. nidulans ATCC 38163
[9] = strain M = C. neoformans ATCC MYA-895
[10] = strain H = C. glabrata ATCC 2004 (footnote)
[11] = strain J = C. parapsilosis ATCC 22019
[12] = Aspergillus nidulans, ATCC38163, strain P = A. nidulans ATCC 38163, read-out: MIC
[13] = Aspergillus flavus, read-out: MIC
[14] = Cryptococcus neoformans, strain M = C. neoformans ATCC MYA-895, read-out: MIC
[15] = Aspergillus terreus, read-out: MIC
[16] = Nakaseomyces glabratus, ATCC 2001 / ATCC 2004, strain H = C. glabrata ATCC 2004 (footnote), read-out: MIC
[17] = Lodderomyces parapsilosis, ATCC22019, strain J = C. parapsilosis ATCC 22019, read-out: MIC
[18] = Pichia kudriavzevii, ATCC6258, strain I = C. krusei ATCC 6258, read-out: MIC

Row | Compound | MIC [1, 8] [μg/mL^−1] | MIC [2] [μg/mL^−1] | MIC [3, 9] [μg/mL^−1] | MIC [4] [μg/mL^−1] | MIC [5, 10] [μg/mL^−1] | MIC [6, 11] [μg/mL^−1] | MIC ([7]; strain I = C. krusei ATCC 6258) [μg/mL^−1] | MIC [1, 12] [µg/mL] | MIC [2, 13] [µg/mL] | MIC [3, 14] [µg/mL] | MIC [4, 15] [µg/mL] | MIC [5, 16] [µg/mL] | MIC [6, 17] [µg/mL] | MIC [7, 18] [µg/mL] | MIC ([3]; against strain M) [j·tg mL^−1] | MIC ([7]; against strain I) [j·tg mL^−1]
1 | C[C@@H]1[C@H](O)[C@@H](C)/C=C/C=C/C=C/C=C/C=C/C=C/C=C/[C@H](O[C@@H]2O[C@H](C)[C@@H](O)[C@H](N)[C@@H]2O)C[C@@H]2O[C@](O)(C[C@@H](O)C[C@@H](O)[C@H](O)CC[C@@H](O)C[C@@H](O)CC(=O)O[C@H]1C)C[C@H](O)[C@H]2C(=O)O [AmB, amphotericin B, reference compound] | 15.6 | 31.3 | 7.8 | 3.9 | 0.98 | 0.98 | 0.98 |  |  |  |  |  |  |  |  | 
2 | O=C(NNc1cccc(F)c1)c1ccc(F)cc1F [Compound 1a] | 3.9 | >31.3 | 1.95 | 3.9 | 7.8 | 3.9 | 1.95 |  |  |  |  |  |  |  |  | 
3 | O=C(NNc1cccc(Cl)c1)c1ccc(F)cc1F [Compound 1b] |  |  |  |  |  |  |  | 3.9 (≈ 13.8 µM) | > 31.3 | 1.95 (≈ 6.9 µM) | 7.8 (≈ 27.6 µM) | > 31.3 | 3.9 (≈ 13.8 µM) | 0.98 (≈ 3.47 µM) |  | 
4 | COc1cccc(NNC(=O)c2ccc(F)cc2F)c1 [Compound 1c] |  |  |  |  |  |  |  | 3.9 (≈ 14 µM) | > 31.3 | 0.49 (≈ 1.76 µM) | 3.9 (≈ 14 µM) | 31.3 (≈ 112 µM) | 7.8 (≈ 28 µM) | 0.98 (≈ 3.52 µM) |  | 
5 | O=C(NNc1ccc(F)cc1)c1ccc(F)cc1F [Compound 1d] |  |  |  |  |  |  |  | 3.9 (≈ 14.6 µM) | > 31.3 | 0.49 (≈ 1.84 µM) | 3.9 (≈ 14.6 µM) | 7.8 (≈ 29.3 µM) | 15.6 (≈ 58.6 µM) | 1.95 (≈ 7.32 µM) |  | 
6 | O=C(NNc1ccc(Cl)cc1)c1ccc(F)cc1F [Compound 1e] | 31.3 | >31.3 | 1.95 | 31.3 | 3.9 | 31.3 | 15.6 |  |  |  |  |  |  |  |  | 
7 | COc1ccc(NNC(=O)c2ccc(F)cc2F)cc1 [Compound 1f] |  |  |  |  |  |  |  | 1.95 (≈ 7.01 µM) | > 31.3 | 0.98 (≈ 3.52 µM) | 31.3 (≈ 112 µM) | 3.9 (≈ 14 µM) | 7.8 (≈ 28 µM) | 0.98 (≈ 3.52 µM) |  | 
8 | O=C(NNc1ccc(F)cc1F)c1ccc(F)cc1F [Compound 1g] |  |  |  |  |  |  |  | 1.95 (≈ 6.86 µM) | > 31.3 | 0.49 (≈ 1.72 µM) | 31.3 (≈ 110 µM) | 1.95 (≈ 6.86 µM) | 7.8 (≈ 27.4 µM) | 7.8 (≈ 27.4 µM) |  | 
9 | O=C(NNc1cc(F)ccc1F)c1ccc(F)cc1F [Compound 1h] |  |  |  |  |  |  |  | 3.9 (≈ 13.7 µM) | 15.6 (≈ 54.9 µM) | 0.98 (≈ 3.45 µM) | > 31.3 | > 31.3 | 31.3 (≈ 110 µM) | 3.9 (≈ 13.7 µM) | 0.98 | 
10 | O=C(NNc1cc(F)cc(F)c1)c1ccc(F)cc1F [Compound 1i] |  |  |  |  |  |  |  | 7.8 (≈ 27.4 µM) | > 31.3 | 0.49 (≈ 1.72 µM) | > 31.3 | > 31.3 | 15.6 (≈ 54.9 µM) | 1.95 (≈ 6.86 µM) | 0.49 | 1.95
11 | O=C(NNc1cc(Cl)cc(Cl)c1)c1ccc(F)cc1F [Compound 1j] |  |  |  |  |  |  |  | 15.6 (≈ 49.2 µM) | > 31.3 | 7.8 (≈ 24.6 µM) | > 31.3 | > 31.3 | > 31.3 | 1.95 (≈ 6.15 µM) |  | 1.95
12 | O=C(NNc1cccc(F)c1)c1ccccn1 [Compound 2a] | 3.9 | 7.8 | 0.12 | 1.95 | 1.95 | 1.95 | 0.24 |  |  |  |  |  |  |  |  | 
13 | O=C(NNc1cccc(Cl)c1)c1ccccn1 [Compound 2b] | 0.24 | >31.3 | 0.12 | 0.98 | 1.95 | 1.95 | 0.49 |  |  |  |  |  |  |  |  | 
14 | COc1cccc(NNC(=O)c2ccccn2)c1 [Compound 2c] | 1.95 | >31.3 | 0.24 | 3.9 | 13.6 | 3.9 | 0.49 |  |  |  |  |  |  |  |  | 
15 | O=C(NNc1ccc(F)cc1)c1ccccn1 [Compound 2d] |  |  |  |  |  |  |  | 0.49 (≈ 2.12 µM) | 31.3 (≈ 135 µM) | 0.24 (≈ 1.04 µM) | 1.95 (≈ 8.43 µM) | 1.95 (≈ 8.43 µM) | 1.95 (≈ 8.43 µM) | 0.12 (≈ 0.519 µM) |  | 
16 | O=C(NNc1ccc(Cl)cc1)c1ccccn1 [Compound 2e] | 0.49 | 31.3 | 0.49 | 3.9 | 1.95 | 3.9 | 1.95 |  |  |  |  |  |  |  |  | 
17 | COc1ccc(NNC(=O)c2ccccn2)cc1 [Compound 2f] |  |  |  |  |  |  |  | 0.49 (≈ 2.01 µM) | > 31.3 | 0.49 (≈ 2.01 µM) | 31.3 (≈ 129 µM) | 0.98 (≈ 4.03 µM) | 3.9 (≈ 16 µM) | 0.49 (≈ 2.01 µM) |  | 
18 | COc1cccc(NNC(=O)c2ccc(F)cn2)c1 [Compound 3c] | 1.95 | >31.3 | 0.24 | 3.9 |  | 3.9 | 0.24 |  |  |  |  |  |  |  |  | 

From patent US20240425464A1, “Substituted Monohydrazides as Potent Antifungal Agents” (University of Kentucky Research Foundation, priority 2023, published 2024)
